Results taken from PubChem BioAssay AID2060490 (Molecular Pharmacology Branch, DTP, NCI, 2025).

Test system: 885512-296-R-J2-PDC complex spheroid viability
Assay: Anticancer human tumor 885512-296-R-J2-PDC patient-derived breast carcinoma cell line growth inhibition [GQUAD]
Conditions: for IC50: curve of first compound; for viability, T/C: stronger effect = lower value
Procedure, shortened: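 Multi-cell-type spheroids of tumor cells with HUVEC and mesenchymal stem cells, treated with drug combinations. Concentrations descend in half-log steps from near clinical Cmax, or from 10 microM where Cmax is unknown; viability read-out.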

[1] = second compound 0.0316 µM, first compound 0.0316 µM
[2] = second compound 0.0316 µM, first compound 0.1 µM
[3] = second compound 0.0316 µM, first compound 0.316 µM
[4] = second compound 0.0316 µM, first compound 1 µM
[5] = second compound 0.0316 µM, first compound 3.16 µM
[6] = second compound 0.0316 µM, first compound 10 µM
[7] = second compound 0.1 µM, first compound 0.0316 µM
[8] = second compound 0.1 µM, first compound 0.1 µM
[9] = second compound 0.1 µM, first compound 0.316 µM
[10] = second compound 0.1 µM, first compound 1 µM
[11] = second compound 0.1 µM, first compound 3.16 µM
[12] = second compound 0.1 µM, first compound 10 µM
[13] = second compound 0.316 µM, first compound 0.0316 µM
[14] = second compound 0.316 µM, first compound 0.1 µM
[15] = second compound 0.316 µM, first compound 0.316 µM
[16] = second compound 0.316 µM, first compound 1 µM
[17] = second compound 0.316 µM, first compound 3.16 µM
[18] = second compound 0.316 µM, first compound 10 µM
[19] = second compound 1 µM, first compound 0.0316 µM
[20] = second compound 1 µM, first compound 0.1 µM
[21] = second compound 1 µM, first compound 0.316 µM
[22] = second compound 1 µM, first compound 1 µM
[23] = second compound 1 µM, first compound 3.16 µM
[24] = second compound 1 µM, first compound 10 µM
[25] = second compound 3.16 µM, first compound 0.0316 µM
[26] = second compound 3.16 µM, first compound 0.1 µM
[27] = second compound 3.16 µM, first compound 0.316 µM
[28] = second compound 3.16 µM, first compound 1 µM
[29] = second compound 3.16 µM, first compound 3.16 µM
[30] = second compound 3.16 µM, first compound 10 µM
[31] = second compound 10 µM, first compound 0.0316 µM
[32] = second compound 10 µM, first compound 0.1 µM
[33] = second compound 10 µM, first compound 0.316 µM
[34] = second compound 10 µM, first compound 1 µM
[35] = second compound 10 µM, first compound 3.16 µM
[36] = second compound 10 µM, first compound 10 µM
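Note: spheroids exposed to the compounds for one week.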
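Throughout, for viability, T/C: percent of tumor spheroid viability relative to DMSO vehicle control wells.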

Which results are given for CC(C)n1c(=O)n(C)c2cnc3cc(F)c(-c4ccc(OCCCN5CCCCC5)nc4)cc3c21 + CN(C)c1ccc(Nc2c3ccc(NC(=O)CCN4CCCC4)cc3nc3cc(NC(=O)CCN4CCCC4)ccc23)cc1?
IC50 (second compound 0.0316 µM): > 10 µM; IC50 (second compound 0.1 µM): > 10 µM; IC50 (second compound 0.316 µM): > 10 µM; IC50 (second compound 1 µM): > 10 µM; IC50 (second compound 3.16 µM): 0.654 µM; IC50 (second compound 10 µM): < 0.0316 µM; viability, T/C [1]: 89.9%; viability, T/C [2]: 81.4%; viability, T/C [3]: 97.1%; viability, T/C [4]: 84.5%; viability, T/C [5]: 118%; viability, T/C [6]: 98.2%; viability, T/C [7]: 81.3%; viability, T/C [8]: 87.5%; viability, T/C [9]: 82.2%; viability, T/C [10]: 95.7%; viability, T/C [11]: 108%; viability, T/C [12]: 72.4%; viability, T/C [13]: 83.4%; viability, T/C [14]: 69.8%; viability, T/C [15]: 84.3%; viability, T/C [16]: 92.9%; viability, T/C [17]: 118%; viability, T/C [18]: 78.6%; viability, T/C [19]: 84%; viability, T/C [20]: 86.3%; viability, T/C [21]: 94.5%; viability, T/C [22]: 87.9%; viability, T/C [23]: 94.8%; viability, T/C [24]: 54.3%; viability, T/C [25]: 75.3%; viability, T/C [26]: 70.4%; viability, T/C [27]: 52%; viability, T/C [28]: 47.5%; viability, T/C [29]: 35.4%; viability, T/C [30]: 18.8%; viability, T/C [31]: 16.4%; viability, T/C [32]: 14.6%; viability, T/C [33]: 13.3%; viability, T/C [34]: 10.1%; viability, T/C [35]: 9.73%; viability, T/C [36]: 2.68%

Which results are given for CC1COCCN1c1cc(C2(O)CC3CCC(C2)O3)c2cnn(-c3ccn[nH]3)c2n1 (stereo unspecified) + CN(C)c1ccc(Nc2c3ccc(NC(=O)CCN4CCCC4)cc3nc3cc(NC(=O)CCN4CCCC4)ccc23)cc1?
IC50 (second compound 0.0316 µM): < 0.0316 µM; IC50 (second compound 0.1 µM): < 0.0316 µM; IC50 (second compound 0.316 µM): < 0.0316 µM; IC50 (second compound 1 µM): < 0.0316 µM; IC50 (second compound 3.16 µM): < 0.0316 µM; IC50 (second compound 10 µM): < 0.0316 µM; viability, T/C [1]: 25.4%; viability, T/C [2]: 5.25%; viability, T/C [3]: 3.07%; viability, T/C [4]: 5.38%; viability, T/C [5]: 6.51%; viability, T/C [6]: 7.85%; viability, T/C [7]: 30%; viability, T/C [8]: 5.86%; viability, T/C [9]: 3.33%; viability, T/C [10]: 4.56%; viability, T/C [11]: 7.53%; viability, T/C [12]: 8.91%; viability, T/C [13]: 22.3%; viability, T/C [14]: 6.08%; viability, T/C [15]: 5.15%; viability, T/C [16]: 4.96%; viability, T/C [17]: 6.17%; viability, T/C [18]: 8.92%; viability, T/C [19]: 29.2%; viability, T/C [20]: 3.86%; viability, T/C [21]: 4.06%; viability, T/C [22]: 4.6%; viability, T/C [23]: 6.32%; viability, T/C [24]: 7.75%; viability, T/C [25]: 18.8%; viability, T/C [26]: 5.47%; viability, T/C [27]: 3.21%; viability, T/C [28]: 4.64%; viability, T/C [29]: 6.84%; viability, T/C [30]: 6.31%; viability, T/C [31]: 12.7%; viability, T/C [32]: 4.76%; viability, T/C [33]: 4.43%; viability, T/C [34]: 2.68%; viability, T/C [35]: 3.3%; viability, T/C [36]: 1.22%

For O=C(c1cc(Cc2n[nH]c(=O)c3ccccc23)ccc1F)N1CCN(C(=O)C2CC2)CC1 + CN(C)c1ccc(Nc2c3ccc(NC(=O)CCN4CCCC4)cc3nc3cc(NC(=O)CCN4CCCC4)ccc23)cc1, which IC50 (second compound 0.0316 µM) is on record?
Its IC50 is 7.62 µM.

What about the IC50 (second compound 0.1 µM) of the same compound?
Its IC50 is 7.9 µM.

What about the IC50 (second compound 0.316 µM) of the same compound?
The IC50 was 7.33 µM.

And the IC50 (second compound 1 µM)?
Its IC50 is 7.31 µM.

What about the IC50 (second compound 3.16 µM) of the same compound?
Its IC50 is 5.34 µM.

What about the IC50 (second compound 10 µM) of the same compound?
The IC50 was less than 0.0316 µM.

And the viability, T/C [1]?
Its viability, T/C is 105%.

What about the viability, T/C [2] of the same compound?
Its viability, T/C is 103%.

And the viability, T/C [3]?
Its viability, T/C is 132%.

What about the viability, T/C [4] of the same compound?
The viability, T/C was 139%.

And the viability, T/C [5]?
Its viability, T/C is 117%.

And the viability, T/C [6]?
The viability, T/C was 29.2%.

And the viability, T/C [7]?
Its viability, T/C is 102%.

And the viability, T/C [8]?
Its viability, T/C is 94.9%.

What about the viability, T/C [9] of the same compound?
Its viability, T/C is 119%.

What about the viability, T/C [10] of the same compound?
Its viability, T/C is 145%.

What about the viability, T/C [11] of the same compound?
The viability, T/C was 120%.

What about the viability, T/C [12] of the same compound?
The viability, T/C was 33%.

And the viability, T/C [13]?
Its viability, T/C is 93.7%.

And the viability, T/C [14]?
Its viability, T/C is 110%.

And the viability, T/C [15]?
Its viability, T/C is 118%.

And the viability, T/C [16]?
Its viability, T/C is 131%.

What about the viability, T/C [17] of the same compound?
The viability, T/C was 123%.

What about the viability, T/C [18] of the same compound?
The viability, T/C was 25.7%.

What about the viability, T/C [19] of the same compound?
The viability, T/C was 85.2%.

And the viability, T/C [20]?
Its viability, T/C is 102%.

And the viability, T/C [21]?
The viability, T/C was 116%.

And the viability, T/C [22]?
Its viability, T/C is 152%.

What about the viability, T/C [23] of the same compound?
Its viability, T/C is 105%.

What about the viability, T/C [24] of the same compound?
The viability, T/C was 29.1%.

And the viability, T/C [25]?
Its viability, T/C is 95%.

What about the viability, T/C [26] of the same compound?
The viability, T/C was 107%.

What about the viability, T/C [27] of the same compound?
The viability, T/C was 125%.

What about the viability, T/C [28] of the same compound?
Its viability, T/C is 107%.

What about the viability, T/C [29] of the same compound?
The viability, T/C was 67.8%.

What about the viability, T/C [30] of the same compound?
Its viability, T/C is 28.7%.

And the viability, T/C [31]?
The viability, T/C was 20.7%.

And the viability, T/C [32]?
Its viability, T/C is 23.3%.

And the viability, T/C [33]?
The viability, T/C was 20.1%.

What about the viability, T/C [34] of the same compound?
The viability, T/C was 19.2%.

What about the viability, T/C [35] of the same compound?
Its viability, T/C is 20.8%.

And the viability, T/C [36]?
The viability, T/C was 15.8%.
